Experimental data as given in patent US8558002B2, “Sulfoximines as kinase inhibitors” (Allergan, Inc., priority 2006, dated 2013).

Tests used:
[1] = molecular target: T1, PDGFRβ (Homo sapiens, UniProt P09619); test: PDGFRβ Kinase Assay (poly-Glu-Tyr ELISA); type: biochemical; conditions: purified cytoplasmic domain PDGFR-b protein, 36 μM ATP
T1 construct: 200-300 ng purified cytoplasmic domain PDGFR-b protein (Millipore); purchased Millipore
Method: Biochemical PDGFRβ kinase assays were performed in 96 well microtiter plates that were coated overnight with 75 μg of poly-Glu-Tyr (4:1) in 10 mM Phosphate Buffered Saline (PBS), pH 7.4. The coated plates were washed with 2 mls per well PBS+0.05% Tween-20 (PBS-T), blocked by incubation with PBS containing 1% BSA, then washed with 2 mls per well PBS-T prior to starting the reaction. Reactions were carried out in 100 μL reaction volumes containing 36 μM ATP in kinase buffer (50 mM Hepes buffer pH 7.4, 20 mM MgCl2, 0.1 mM MnCl2 and 0.2 mM Na3VO4). Test compounds were reconstituted in 100% DMSO and added to the reaction to give a final DMSO concentration of 5%. Reactions were initiated by the addition 20 ul per well of kinase buffer containing 200-300 ng purified cytoplasmic domain PDGFR-b protein (Millipore). Following a 60 minute incubation at 30° C., the reactions were washed 2 mls per well PBS-T. […] of a monoclonal anti-phosphotyrosine antibody-peroxidase conjugate diluted 1:10,000 in PBS-T was added to the wells for 30 minutes. Following a 2 mls per well wash with PBS-Tween-20, 100 μl of O-Phenylenediamine Dihydrochloride in phosphate-citrate buffer, containing urea hydrogen peroxide, was added to the wells for 7-10 minutes as a colorimetric substrate for the peroxidase. The reaction was terminated by the addition of 100 μl of 2.5N H2SO4 to each well and read using a microplate ELISA reader set at 492 nm. IC50 values for compound inhibition were calculated directly from graphs of optical density (arbitrary units) versus compound concentration following subtraction of blank values.

[2] = molecular target: VEGFR1 (Homo sapiens, UniProt P17948); test: VEGFR1 Kinase; type: biochemical
VEGFR1, sequence (P17948 27-1338, species assumed): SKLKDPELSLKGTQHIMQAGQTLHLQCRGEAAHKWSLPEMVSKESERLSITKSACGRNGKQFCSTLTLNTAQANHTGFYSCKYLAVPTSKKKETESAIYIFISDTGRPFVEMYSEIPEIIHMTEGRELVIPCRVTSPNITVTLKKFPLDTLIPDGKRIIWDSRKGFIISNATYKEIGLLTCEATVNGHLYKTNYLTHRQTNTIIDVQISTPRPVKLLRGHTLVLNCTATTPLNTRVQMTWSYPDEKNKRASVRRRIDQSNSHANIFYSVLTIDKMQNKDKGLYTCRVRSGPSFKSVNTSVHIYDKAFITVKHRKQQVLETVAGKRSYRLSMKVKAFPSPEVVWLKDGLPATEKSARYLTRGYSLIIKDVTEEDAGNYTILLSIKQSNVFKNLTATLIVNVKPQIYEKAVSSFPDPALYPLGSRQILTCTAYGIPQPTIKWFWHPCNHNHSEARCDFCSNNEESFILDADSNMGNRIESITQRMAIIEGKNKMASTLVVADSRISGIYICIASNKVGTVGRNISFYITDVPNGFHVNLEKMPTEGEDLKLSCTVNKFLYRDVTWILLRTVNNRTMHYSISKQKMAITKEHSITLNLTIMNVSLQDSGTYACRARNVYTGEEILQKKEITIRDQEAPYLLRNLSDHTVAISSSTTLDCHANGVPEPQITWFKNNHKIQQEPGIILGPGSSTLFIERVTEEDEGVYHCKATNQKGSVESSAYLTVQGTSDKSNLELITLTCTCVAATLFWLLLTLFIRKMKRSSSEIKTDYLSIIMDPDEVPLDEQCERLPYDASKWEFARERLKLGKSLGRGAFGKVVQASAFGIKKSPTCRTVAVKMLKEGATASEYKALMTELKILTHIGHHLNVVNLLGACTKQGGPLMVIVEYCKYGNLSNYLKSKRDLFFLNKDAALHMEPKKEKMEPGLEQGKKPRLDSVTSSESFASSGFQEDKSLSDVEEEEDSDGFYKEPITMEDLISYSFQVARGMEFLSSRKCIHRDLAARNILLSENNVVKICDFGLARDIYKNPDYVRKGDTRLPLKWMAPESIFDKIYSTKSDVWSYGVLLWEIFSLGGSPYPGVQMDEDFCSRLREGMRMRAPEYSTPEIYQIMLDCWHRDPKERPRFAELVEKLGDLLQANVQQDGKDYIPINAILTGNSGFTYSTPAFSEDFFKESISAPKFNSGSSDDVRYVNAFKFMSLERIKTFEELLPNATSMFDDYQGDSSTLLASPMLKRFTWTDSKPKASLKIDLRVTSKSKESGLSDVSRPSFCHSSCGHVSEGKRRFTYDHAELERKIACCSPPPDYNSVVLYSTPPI

[3] = molecular target: T2, VEGFR2 (Homo sapiens, UniProt P35968); test: VEGFR2 Cellular Assay (FLIPR, VEGF induced increases in intracellular calcium in HUVEC); type: cell-based; design: host or cells: HUVEC; conditions: VEGF165 stimulation (10 ng/mL), Fluo-4
Method: Automated FLIPR (Fluorometric Imaging Plate Reader) technology was used to screen for inhibitors of VEGF induced increases in intracellular calcium levels in fluorescent dye loaded endothelial cells. HUVEC (human umbilical vein endothelial cells) (Clonetics) were seeded in 384-well fibronectin coated black-walled plates overnight @ 37° C./5% CO2. Cells were loaded with calcium indicator Fluo-4 for 45 minutes at 37° C. Cells were washed 2 times (El×405, Biotek Instruments) to remove extracellular dye. For screening, cells were pre-incubated with test agents for 30 minutes, at a single concentration (10 uM) or at concentrations ranging from 0.0001 to 10.0 uM followed by VEGF165 stimulation (10 ng/mL). Changes in fluorescence at 516 nm were measured simultaneously in all 384 wells using a cooled CCD camera. Data were generated by determining max-min fluorescence levels for unstimulated, stimulated, and drug treated samples. IC50 values for test compounds were calculated from % inhibition of VEGF stimulated responses in the absence of inhibitor.
Target sequence in this assay (P35968 20-1356): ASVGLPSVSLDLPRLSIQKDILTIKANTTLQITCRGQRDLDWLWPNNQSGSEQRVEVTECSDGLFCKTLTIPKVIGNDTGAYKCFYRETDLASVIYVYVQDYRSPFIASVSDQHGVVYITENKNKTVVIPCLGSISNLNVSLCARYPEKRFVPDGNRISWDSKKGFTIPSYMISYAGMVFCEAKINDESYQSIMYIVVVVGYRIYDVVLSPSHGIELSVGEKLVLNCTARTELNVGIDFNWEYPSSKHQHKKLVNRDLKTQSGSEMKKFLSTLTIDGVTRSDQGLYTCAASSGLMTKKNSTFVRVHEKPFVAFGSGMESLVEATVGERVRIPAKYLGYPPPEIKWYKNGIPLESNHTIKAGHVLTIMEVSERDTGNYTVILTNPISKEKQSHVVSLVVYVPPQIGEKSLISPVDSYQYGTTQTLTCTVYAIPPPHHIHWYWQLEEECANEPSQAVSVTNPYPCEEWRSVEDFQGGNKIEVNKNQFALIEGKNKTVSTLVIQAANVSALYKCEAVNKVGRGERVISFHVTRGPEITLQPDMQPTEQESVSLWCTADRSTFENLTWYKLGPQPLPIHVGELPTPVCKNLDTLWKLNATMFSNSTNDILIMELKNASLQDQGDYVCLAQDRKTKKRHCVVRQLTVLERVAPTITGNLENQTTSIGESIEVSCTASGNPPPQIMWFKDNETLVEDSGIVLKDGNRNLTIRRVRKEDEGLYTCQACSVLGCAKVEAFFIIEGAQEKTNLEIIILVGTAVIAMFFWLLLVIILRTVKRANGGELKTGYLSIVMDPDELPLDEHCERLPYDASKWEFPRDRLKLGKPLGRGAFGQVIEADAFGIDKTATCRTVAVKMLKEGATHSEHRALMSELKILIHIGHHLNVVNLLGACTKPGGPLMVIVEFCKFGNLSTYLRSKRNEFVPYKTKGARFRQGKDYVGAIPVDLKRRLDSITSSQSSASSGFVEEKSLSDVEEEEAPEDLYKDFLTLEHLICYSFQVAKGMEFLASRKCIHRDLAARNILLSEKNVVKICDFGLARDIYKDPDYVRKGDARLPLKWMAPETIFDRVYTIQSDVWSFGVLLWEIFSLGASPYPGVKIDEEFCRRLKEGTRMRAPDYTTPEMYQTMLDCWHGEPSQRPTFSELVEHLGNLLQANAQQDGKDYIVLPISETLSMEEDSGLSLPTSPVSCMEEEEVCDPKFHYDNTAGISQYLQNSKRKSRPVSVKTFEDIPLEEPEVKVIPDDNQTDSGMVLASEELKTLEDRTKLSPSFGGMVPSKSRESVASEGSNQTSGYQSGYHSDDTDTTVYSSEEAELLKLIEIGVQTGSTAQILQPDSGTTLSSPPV

[4] = molecular target: T2, VEGFR2; test: VEGFR2 Kinase Assay (biochemical KDR kinase, poly-Glu-Tyr ELISA); design: 200-300 ng purified cytoplasmic domain KDR protein; purchased BPS Bioscience; conditions: purified cytoplasmic domain KDR protein, 2.7 μM ATP
Method: Biochemical KDR kinase assays were performed in 96 well microtiter plates that were coated overnight with 75 μg/well of poly-Glu-Tyr (4:1) in 10 mM Phosphate Buffered Saline (PBS), pH 7.4. The coated plates were washed with 2 mls per well PBS+0.05% Tween-20 (PBS-T), blocked by incubation with PBS containing 1% BSA, then washed with 2 mls per well PBS-T prior to starting the reaction. Reactions were carried out in […] reaction volumes containing 2.7 μM ATP in kinase buffer (50 mM Hepes buffer pH 7.4, 20 mM MgCl2, 0.1 mM MnCl2 and 0.2 mM Na3VO4). Test compounds were reconstituted in 100% DMSO and added to the reaction to give a final DMSO concentration of 5%. Reactions were initiated by the addition 20 ul per well of kinase buffer containing 200-300 ng purified cytoplasmic domain KDR protein (BPS Bioscience, San Diego, Calif.). Following a 15 minute incubation at 30° C., the reactions were washed 2 mls per well PBS-T. 100 μl of a monoclonal anti-phosphotyrosine antibody-peroxidase conjugate diluted 1:10,000 in PBS-T was added to the wells for 30 minutes. Following a 2 mls per well wash with PBS-Tween-20, 100 μl of O-Phenylenediamine Dihydrochloride in phosphate-citrate buffer, containing urea hydrogen peroxide, was added to the wells for 7-10 minutes as a colorimetric substrate for the peroxidase. The reaction was terminated by the addition of 100 μl of 2.5NH2SO4 to each well and read using a microplate ELISA reader set at 492 nm. IC50 values for compound inhibition were calculated directly from graphs of optical density (arbitrary units) versus compound concentration following subtraction of blank values.
Target sequence in this assay (P35968 786-1356 limits assumed): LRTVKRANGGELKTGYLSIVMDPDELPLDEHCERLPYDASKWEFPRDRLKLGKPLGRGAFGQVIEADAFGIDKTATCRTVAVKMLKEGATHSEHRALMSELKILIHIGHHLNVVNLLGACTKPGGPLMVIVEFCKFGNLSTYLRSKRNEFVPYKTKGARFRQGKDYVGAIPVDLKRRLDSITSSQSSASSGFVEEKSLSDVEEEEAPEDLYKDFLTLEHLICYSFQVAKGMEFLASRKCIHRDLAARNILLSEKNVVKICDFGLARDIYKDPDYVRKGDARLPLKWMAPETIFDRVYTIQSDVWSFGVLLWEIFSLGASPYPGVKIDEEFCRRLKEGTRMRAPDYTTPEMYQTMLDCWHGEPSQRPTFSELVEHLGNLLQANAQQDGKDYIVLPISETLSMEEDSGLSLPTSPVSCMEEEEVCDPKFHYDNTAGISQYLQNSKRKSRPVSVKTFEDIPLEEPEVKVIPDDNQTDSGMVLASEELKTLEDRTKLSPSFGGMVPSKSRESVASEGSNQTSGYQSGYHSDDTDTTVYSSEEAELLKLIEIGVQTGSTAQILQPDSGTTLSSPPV

T1 sequence (P09619 554-1106 limits assumed): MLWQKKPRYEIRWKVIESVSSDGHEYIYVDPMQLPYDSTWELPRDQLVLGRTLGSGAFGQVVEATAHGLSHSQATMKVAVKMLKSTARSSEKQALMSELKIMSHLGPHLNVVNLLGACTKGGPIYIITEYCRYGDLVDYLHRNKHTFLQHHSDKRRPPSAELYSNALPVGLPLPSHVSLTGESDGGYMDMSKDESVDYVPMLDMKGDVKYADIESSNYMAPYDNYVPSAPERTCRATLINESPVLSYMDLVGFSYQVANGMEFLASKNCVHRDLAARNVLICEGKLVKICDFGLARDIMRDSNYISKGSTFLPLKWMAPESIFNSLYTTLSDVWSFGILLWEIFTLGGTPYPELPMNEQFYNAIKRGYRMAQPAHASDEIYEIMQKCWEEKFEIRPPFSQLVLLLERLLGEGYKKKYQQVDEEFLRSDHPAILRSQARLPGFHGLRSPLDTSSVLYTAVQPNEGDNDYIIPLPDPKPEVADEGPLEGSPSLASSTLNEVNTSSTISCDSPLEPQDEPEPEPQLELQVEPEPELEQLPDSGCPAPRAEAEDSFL

SMILES | IC50 [1] [nM] | IC50 [2] [nM] | IC50 [3] [nM] | IC50 [4] [nM]
COC(=O)CCCCS(=O)(CCCCC(=O)OC)=NC(=O)c1cnc(N)c(C#Cc2cccc(C(=O)Nc3cc(C)ccc3F)c2)c1 [Example 14, Dimethyl 5,5′-[N-({6-amino-5-[(3-{[(2-fluoro-5-methylphenyl)amino]carbonyl}phenyl)ethynyl]pyridin-3-yl}carbonyl)sulfonimidoyl]dipentanoate] | 50 | 14 | < 1 | 11
COC(=O)CCCCS(=O)(CCCCC(=O)OC)=NC(=O)c1cnc(N)c(C#Cc2cccc(NC(=O)Nc3cc(C)ccc3F)c2)c1 [Example 18, Dimethyl 5,5′-{N-[(6-amino-5-{[3-({[(2-fluoro-5-methylphenyl)amino]carbonyl}amino)phenyl]ethynyl}pyridin-3-yl)carbonyl]sulfonimidoyl}dipentanoate] |  |  | 23 | 10
COC(=O)CCCCS(=O)(CCCCC(=O)OC)=NC(=O)c1cnc(N)c(C#Cc2cccc(C(=O)Nc3cccc(OC)c3)c2)c1 [Example 11, Dimethyl 5,5′-[N-({6-amino-5-[(3-{[(3-methoxyphenyl)amino]carbonyl}phenyl)ethynyl]pyridin-3-yl}carbonyl)sulfonimidoyl]dipentanoate] | 38 |  | 2 | 4
COC(=O)CCCCS(=O)(CCCCC(=O)OC)=NC(=O)c1cnc(N)c(C#Cc2cccc(C(=O)Nc3ccc(F)c(Cl)c3)c2)c1 [Example 15, Dimethyl 5,5′-[N-({6-amino-5-[(3-{[(3-chloro-4-fluorophenyl)amino]carbonyl}phenyl)ethynyl]pyridin-3-yl}carbonyl)sulfonimidoyl]dipentanoate] | 68 |  | 11 | 15
COC(=O)CCCCS(=O)(CCCCC(=O)OC)=NC(=O)c1cnc(N)c(C#Cc2cccc(NC(=O)c3cccc(C(F)(F)F)c3)c2)c1 [Example 5, Dimethyl 5,5′-[N-({6-amino-5-[(3-{[3-(trifluoromethyl)benzoyl]amino}phenyl)ethynyl]pyridin-3-yl}carbonyl)sulfonimidoyl]dipentanoate] | 10 |  | 3 | 10
COC(=O)CCCCS(=O)(CCCCC(=O)OC)=NC(=O)c1cnc(N)c(C#Cc2cccc(NC(=O)c3occc3C)c2)c1 [Example 2, Dimethyl 5,5′-(N-{[6-amino-5-({3-[(3-methyl-2-furoyl)amino]phenyl}ethynyl)pyridin-3-yl]carbonyl}sulfonimidoyl)dipentanoate] | 176 | 10 | 3 | 3
COC(=O)CCCCS(=O)(CCCCC(=O)OC)=NC(=O)c1cnc(N)c(C#Cc2cccc(C(=O)Nc3ccc(OC)c(Cl)c3)c2)c1 [Example 13, Dimethyl 5,5′-[N-({6-amino-5-[(3-{[(3-chloro-4-methoxyphenyl)amino]carbonyl}phenyl)ethynyl]pyridin-3-yl}carbonyl)sulfonimidoyl]dipentanoate] | 38 |  | 5 | 9
COC(=O)CCCCS(=O)(CCCCC(=O)OC)=NC(=O)c1cnc(N)c(C#Cc2cccc(NC(=O)c3cccc(SC)c3)c2)c1 [Example 3, Dimethyl 5,5′-[N-({6-amino-5-[(3-{[3-(methylthio)benzoyl]amino}phenyl)ethynyl]pyridin-3-yl}carbonyl)sulfonimidoyl]dipentanoate] |  |  | 4 | 5
COC(=O)CCCCS(=O)(CCCCC(=O)OC)=NC(=O)c1cnc(N)c(C#Cc2cccc(NC(=O)c3ccc(F)c(Cl)c3)c2)c1 [Example 4, Dimethyl 5,5′-(N-{[6-amino-5-({3-[(3-chloro-4-fluorobenzoyl)amino]phenyl}ethynyl)pyridin-3-yl]carbonyl}sulfonimidoyl)dipentanoate] | 34 |  | 2 | 8
COC(=O)CCCCS(=O)(CCCCC(=O)OC)=NC(=O)c1cnc(N)c(C#Cc2cccc(NC(=O)c3cccc(C)c3)c2)c1 [Example 1, Dimethyl 5,5′-(N-{[6-amino-5-({3-[(3 methylbenzoyl)amino]phenyl}ethynyl)pyridin-3-yl]carbonyl}sulfonimidoyl)dipentanoate] | 25 |  | < 1 | 9
COC(=O)CCCCS(=O)(CCCCC(=O)OC)=NC(=O)c1cnc(N)c(C#Cc2cccc(NC(=O)c3cccc(Cl)c3)c2)c1 [Example 6] | 21 |  | 1 | 11
COC(=O)CCCCS(=O)(CCCCC(=O)OC)=NC(=O)c1cnc(N)c(C#Cc2cccc(C(=O)Nc3cc(C(C)(C)C)on3)c2)c1 [Example 16, Dimethyl 5,5′-[N-({6-amino-5-[(3-{[(5-tert-butylisoxazol-3-yl)amino]carbonyl}phenyl)ethynyl]pyridin-3-yl}carbonyl)sulfonimidoyl]dipentanoate] | 20 | 27 |  | 28
COC(=O)CCCCS(=O)(CCCCC(=O)OC)=NC(=O)c1cnc(N)c(C#Cc2cccc(C(=O)Nc3ccc(Cl)c(C(F)(F)F)c3)c2)c1 [Example 17, Dimethyl 5,5′-{N-[(6-amino-5-{[3-({[4-chloro-3-(trifluoromethyl)phenyl]amino}carbonyl)phenyl]ethynyl}pyridin-3-yl)carbonyl]sulfonimidoyl}dipentanoate] | 36 | 32 |  | 37
COC(=O)CCCCS(=O)(CCCCC(=O)OC)=NC(=O)c1cnc(N)c(C#Cc2cccc(C(=O)Nc3cccc(C)c3)c2)c1 [Example 12, Dimethyl 5,5′-[N-({6-amino-5-[(3-{[(3-methylphenyl)amino]carbonyl}phenyl)ethynyl]pyridin-3-yl}carbonyl)sulfonimidoyl]dipentanoate] | 57 |  | 1 | 8
COC(=O)CCCCS(=O)(CCCCC(=O)OC)=NC(=O)c1cnc(N)c(C#Cc2cccc(NC(=O)c3cc(C(F)(F)F)ccc3F)c2)c1 [Example 10, Dimethyl 5,5′-[N-({6-amino-5-[(3-{[2-fluoro-5-(trifluoromethyl)benzoyl]amino}phenyl)ethynyl]pyridin-3-yl}carbonyl)sulfonimidoyl]dipentanoate] | 69 |  | 6 | 20
COC(=O)CCCCS(=O)(CCCCC(=O)OC)=NC(=O)c1cnc(N)c(C#Cc2cccc(NC(=O)c3cccc([S+](C)[O-])c3)c2)c1 (centres unmarked) [Example 8, Dimethyl 5,5′-[N-({6-amino-5-[(3-{[3-(methylsulfinyl)benzoyl]amino}phenyl)ethynyl]pyridin-3-yl}carbonyl)sulfonimidoyl]dipentanoate] |  |  | 6 | 12
